{"source": "patent US20070254055A1", "about": "“Therapeutic Avenanthramide Compounds” (TRUSTEES OF TUFTS COLLEGE, priority 2003, published 2007)", "key": {"eNOS mRNA": {"system": "eNOS mRNA", "assay": "eNOS mRNA expression level by real time PCR", "type": "cell-based, human", "procedure": "Since NO is catalyzed by endothelium nitric oxide synthases (eNOS), the role of Avenanthramide in induction of eNOS expression level by real time PCR was examined. Total mRNA was extracted using RNesy Mini Kit (QIAGEN) and quantified spectrophotometrically at 260 nm. Twenty μl of first-strand cDNA was synthesized from 1.5 μg of total RNA by using 300 ng of random hexanucleotide primers and 200u of SuperScript II (Invitrogen) at 42 C. for 1 h followed by heat inactivation of reverse transcriptase at 70 C. for 15 min. Fifty μL of PCR reaction mixture contained 5 μL cDNA, up- and down-stream primers (200 nM) and 25 μL of SYBR Green was set up into the ABI 4400 to perform the amplification for 40 cycles with denaturation at 95 C. for 30 sec, annealing at 60 C. for 1 min and extension at 72 C. for 1 min. Primers designed based on the published gene sequences were synthesized from Tufts University Core Facility. The primer sequences used for eNOS were:\nBeta-actin mRNA expression level as an internal control. […] The enhancing effect is dose-dependent and the pattern is consistent with the results from NO production (FIG. 3)."}, "[1]": {"system": "A10 cells (rat embryonic aortic smooth muscle cell)", "assay": "Cell number counting, A10 cells", "type": "cell-based", "quoted_text": "(§4) HSMC or A10 cells (rat embryonic aortic smooth muscle cell) were seeded into 6-well plate at a density of 0.5×10^4/well. Four hr later 120 μM of avenanthramide were added to each well. At different time points (2d, 3d and 4d) the cells were trypsinzied and the total cell number were counted using a hemocytometer. Trypan blue exclusion test was carried out to determine the cell viability."}, "NO production of HAEC": {"system": "NO production of HAEC", "assay": "NO production, DAF-2 fluorescence assay, HAEC", "type": "cell-based, human", "conditions": "120 μM, 24 h", "description": "(§1) In addition to its vasodilating feature, NO has antiatherosclerotic properties, such as prevention of platelet aggregation, leukocyte adhesion, smooth muscle cell proliferation, and the expression of genes involved in atherogenesis. In this study, the human aortic smooth muscle cells (HSMC) and human aortic endothelia cells (HEC) were used to determine if avenanthramides can influence the NO production level. Synthetic Av-C was used in this experiment. The quantification of NO production was performed by the 4,5 diaminofluorescein (DAF-2) fluorescence assay. Briefly, cells were seeded into 24-well plate and let them grow to 90% confluent condition. The cells were pretreated with different concentrations of Avenanthramide for 24 h. The culture medium was then changed to PBS containing 100 μM L-arginine, 1 μM bradykinin and L-NAME. Then 0.1 μM of DAF-2 was added to each well. After another 2 h of incubation, 200 μL of supernatants were transferred to black microplates and the fluorescence was measured with a fluorescence microplate reader calibrated for excitation at 485 nm and emission at 538 nm."}, "pRb": {"system": "pRb", "assay": "pRb phosphorylation Western blot, FBS-stimulated A10 cells", "type": "cell-based, rat", "conditions": "10% FBS, 20 h", "procedure": "(§2) Protein from 5×10^4 cells was subjected to electrophoresis on 7.5-10% SDS-polyacrylamide gels and electro-transferred to nirocellulose membrane. Nonspecific binding was blocked by incubating with Tris-buffered saline (TBS) [137 mM NaCl, and 15 mM Tris-HCl (pH 7.6)] containing 5% non-fat milk (w/v) for 1 h at room temperature and then probed with primary antibody against p53, p21, p27, cyclin D1 and pRb overnight. After washing in TBS-Tween 20 buffer (0.075% v/v), the membranes were incubated with horseradish peroxidase-conjugated anti-IgG antibody. Proteins bound to the primary antibodies were detected with ECL detection reagents.\nBased on the above findings that treatment of A10 cells with Avn arrests the cell cycle at G1 phase, the effect of Avn treatment on cell cycle regulatory molecules involved in G1 phase of the cell cycle progression were analyzed. pRB, the product of the retinoblastoma tumor suppressor gene, is a major cell cycle regulator and its hyperphosphorylation (ppRb) is necessary for G1-S phase transition. To elucidate the mechanism by which Avn inhibits the cell cycle progression, the changes in pRB phosphorylation status were measured using anti-phospho-pRb specific antibody. FIG. 11 is a Western blot showing the effects of Avn on pRB phosphorylation. Av inhibits pRb phosphorylation in A10 cells stimulated with FBS. […]"}, "p27Kip1": {"system": "p27Kip1", "assay": "p27Kip1 expression Western blot, A10 cells", "type": "cell-based, rat", "conditions": "10% FBS, 20 h", "procedure": "as §2\n(§3) Cyclin-dependent kinase (cdk) inhibitors play important roles in cell cycle progression. P21cip1 is the main target of p53 medicated cell cycle inhibition. […] The effect of Avn on this CDK inhibitor p21cip1 protein expression was determined by Western blotting. A10 cells were synchronized by growning in FBS-free medium for 24 h. The cells were then stimulated with 10% FBS in the absence or presence of different concentrations of substantially purified Avn-C. After 20 h, total cell lysates were prepared and subjected to SDS-PAGE followed by Western blot analysis to detect p21cip and p27kip. β-Actin expression was used as loading control. […]"}, "[2]": {"system": "human aortic smooth muscle cells (HSMC)", "assay": "FBS-induced [3H] thymidine incorporation in HSMC", "type": "cell-based", "description": "Synthetic Av-C was used in this experiment. […] The inhibitory effect of Avenanthramide was concentration-dependent."}, "[3]": {"system": "human aortic smooth muscle cells (HSMC)", "assay": "Cell number counting, HSMC", "type": "cell-based", "conditions": "120 μM", "quoted_text": "as §4"}, "p21cip1": {"system": "p21cip1", "assay": "p21cip1 expression Western blot, A10 cells", "type": "cell-based, rat", "conditions": "10% FBS, 20 h, highest level at 120 μM", "procedure": "as §2, §3"}, "NO production of HSMC": {"system": "NO production of HSMC", "assay": "NO production, DAF-2 fluorescence assay, HSMC", "type": "cell-based, human", "description": "as §1"}}, "note": "pIC50: −log10 of the molar value."}
{"smiles": "O=C(/C=C/c1ccc(O)c(O)c1)Nc1ccc(O)cc1C(=O)O", "note": "[Avn-C, Avenanthramide C]", "values": [{"measurement": "increase of eNOS mRNA expression level", "setting": "eNOS mRNA; 80 μM, HASMC", "result": 3.5, "unit": "fold"}, {"measurement": "Fold Change, eNOS mRNA expression level", "setting": "eNOS mRNA; Av. Con. 40 μM", "result": 1.56}, {"measurement": "ΔCt eNOS-β-actin", "setting": "eNOS mRNA; Av. Con. 40 μM", "result": "7.0 ± 0.51"}, {"measurement": "Fold Change, eNOS mRNA expression level", "setting": "eNOS mRNA; Av. Con. 80 μM", "result": 2.39}, {"measurement": "ΔCt eNOS-β-actin", "setting": "eNOS mRNA; Av. Con. 80 μM", "result": "6.41 ± 0.48"}, {"measurement": "reduction in cell proliferation", "setting": "[1]; 120 μM", "result": 50, "unit": "%"}, {"measurement": "doubling time", "setting": "[1]; A10, 120 μM", "result": "more than 48 hr"}, {"measurement": "increase in NO production compared with control", "setting": "NO production of HAEC", "result": 8.8, "unit": "folds"}, {"measurement": "expression of the total amount of pRb", "setting": "pRb", "result": "did not change"}, {"measurement": "serum-induced pRB phosphorylation", "setting": "pRb; different concentrations", "result": "dose-dependently inhibited"}, {"measurement": "p27Kip1 protein expression", "setting": "p27Kip1", "result": "no significant effect"}, {"measurement": "inhibition of cell proliferation (serum-induced DNA synthesis)", "setting": "[2]; 120 μM, 10% FBS, 24 h", "result": "more than 50%"}, {"measurement": "pIC50", "setting": "[2]; [3H] thymidine incorporation and cell number counting, read-out: IC50, serum-induced HASMC proliferation", "result": "~4.30"}, {"measurement": "inhibition of cell growth", "setting": "[3]; 4 days", "result": "more than 50%"}, {"measurement": "doubling time", "setting": "[3]; HSMC", "result": "more than 48 hr"}, {"measurement": "p21 expression level", "setting": "p21cip1", "result": "increased significantly"}, {"measurement": "increase of NO production", "setting": "NO production of HSMC; 80 μM, HASMC", "result": 2.1, "unit": "fold"}, {"measurement": "increase in NO production compared with control", "setting": "NO production of HSMC; 120 μM, 24 h, HSMC", "result": 3.0, "unit": "folds"}]}
